Data published in US5212286A, “Atrial Natriuretic/vasodilator peptide compounds” (Scios Nova Inc., priority 1986, dated 1993).
Positions of bridges follow the written chain, without caps; N, C: chain ends. Residues, ends and D or L forms follow the SMILES beside them. No end group written: not given here.

Columns and labels:
[1] = system: ANVP receptor sites on cultured bovine vascular smooth muscle cells; assay: Displacement of specific [125I]rANVP(126-150) binding on cultured smooth muscle cells; conditions: for Ki: concentration of half-maximal displacement
Excerpt: Specific and saturable binding is a necessary component of a hormone/receptor interaction.
Various concentrations of the peptides described were examined for […]

[2] = system: experimental animals; assay: Diuretic activity following infusion into experimental animals (FIG. 12B); assay type: in vivo; conditions: urinary flow rate as percentage of baseline
Excerpt: FIG. 12 graphically portrays a comparison of the activities of selected compounds of the present invention, in which Panel A depicts a dose response relationship comparing the vasorelaxant properties of rANVP […] and [Ala^130 ]rANVP(126-150) and Panel B portrays a comparison of the diuretic activities of the same two peptides following infusion into experimental animals. Urinary flow rates during and post infusion (periods 7-24) were compared to control (baseline) flow rates (periods 1-6) and data are expressed as the percentage of baseline control values;
In table VII, various ANVP compounds were tested over a ten-fold range of concentration. Most of the peptides induced diuresis and natriuresis with few exceptions ([D-Asp^135 ]rANVP(126-150), [D-Val^137 ] rANVP(126-150)]). […] This is perhaps best observed with the ANVP analog [Ala^130 ]rANVP(126-150). […] Thus, it appears that [Ala^130 ]rANVP(126-150), rANVP(126-147) and related peptide forms represent classes of compounds which may exert renal selectivity. Such compounds could have important therapeutic value.

[3] = system: precontracted rabbit or rat aortic preparations; assay: Vasorelaxant potency on precontracted aortic rings; conditions: for vasorelaxant potency in words: precontracted vascular preparations; for IC50: thoracic aortic segments precontracted with histamine or norepinephrine, read-out: IC50 (concentration producing half-maximal relaxation of the precontracted tissue)
Protocol: Synthetic ANVP compounds were compared to partially purified (gel filtration step) and purified (HPLC) native ANVP compounds (See FIGS. 3A-D) for their ability to relax histamine-contracted aortic rings. Rings were suspended in 10 ml aerated Kreb's buffer under 1.5 gm passive tension. Rings were precontracted with 5 X 10^-6 M histamine, washed and allowed to return to baseline tension, as described ([…]., supra). Increasing amounts of purified or synthetic ANVP compounds were then added in cumulative fashion. […] The relaxation effects of various ANVP compounds on precontracted rabbit or rat aortic preparations are shown in Table III. | Thoracic aortic segments were precontracted with histamine or | norepinephrine as previously described. Various doses of ANVP compounds | were then added and relaxation of the precontracted state was monitored. | Data are expressed as the concentration of each peptide required to | produce a halfmaximal relaxation of the precontracted tissue (IC50).

[4] = system: intact rats; assay: Natriuretic and diuretic effects in intact rats (bolus injection); assay type: in vivo, rat; conditions: dose 3670 pmol/kg
Protocol: Synthetic ANVP compounds […] hANVP(127-151) were also found to be natriuretic in the intact rat. These compounds were administered as a bolus injection to Inactin anesthetized rats (100 mg/kg, average weight 399 g) which were maintained on a constant infusion of normal saline at 2.2 ml/hr. […] Data are expressed as mean±SE.

[5] = system: isolated rat kidney; assay: Renal function in the isolated perfused rat kidney; conditions: dose 0.1 μg; experimental period E; mean of 3-8 experiments
[6] = system: rabbit thoracic aortic rings; assay: Relaxation of histamine-contracted rabbit thoracic aortic rings; conditions: tested as described for the expressed material
Protocol: Synthetic ANVP compounds were compared to partially purified (gel filtration step) and purified (HPLC) native ANVP compounds (See FIGS. 3A-D) for their ability to relax histamine-contracted aortic rings. Rings were suspended in 10 ml aerated Kreb's buffer under 1.5 gm passive tension. Rings were precontracted with 5 X 10^-6 M histamine, washed and allowed to return to baseline tension, as described (Kleinert, H. D., supra). Increasing amounts of purified or synthetic ANVP compounds were then added in cumulative fashion.
The dried methanol soluble and ammonium acetate eluted material was resolubilized in 0.5 ml of distilled H2 O and tested for biological activity using the precontracted rabbit thoracic aortic ring model described in Kleinert, et al., Hypertension 6:Suppl. 1:143-146 (1984). Equal volumes of material reconstituted from crude lyophilized media, methanol soluble protein or protein eluted from SP-Sephadex® with 1.0 M ammonium acetate were compared using aortic rings precontracted with 5 μM histamine. Material synthesized by yeast cultures whose plasmids encoded proANVP (amino acids 26-152) (YEp-α-NF-9) and proANVP (amino acids 121-152) (YEp-α-NF-5), as well as the corresponding inverse orientations (YEp-α-NF-12 and YEp-α-NF-7, respectively), were compared.
A fraction of the crude bacteria extract was subsequently boiled for 5 minutes and lowered to pH 2.5 for 1 hour. […]

CC[C@H](C)[C@@H]1NC(=O)[C@H](CCCNC(=N)N)NC(=O)[C@H](CC(=O)O)NC(=O)[C@H]([C@@H](C)CC)NC(=O)[C@H](CCCNC(=N)N)NC(=O)CNC(=O)CNC(=O)[C@H](C)NC(=O)[C@@H](NC(=O)[C@H](CO)NC(=O)[C@H](CO)NC(=O)[C@@H](N)CCCNC(=N)N)CSSC[C@@H](C(=O)N[C@@H](CC(N)=O)C(=O)N[C@@H](CO)C(=O)N[C@@H](Cc2ccccc2)C(=O)N[C@@H](CCCNC(=N)N)C(=O)N[C@@H](Cc2ccc(O)cc2)C(=O)O)NC(=O)CNC(=O)[C@H](CC(C)C)NC(=O)CNC(=O)[C@H](CO)NC(=O)[C@H](CCC(N)=O)NC(=O)[C@H](C)NC(=O)CNC1=O [[Ala^130]rANVP(126-150)]
binding activity in smooth muscle cells relative to rANVP(126-150), in words [1]: comparable binding activity to rANVP(126-150)
Ki ([1]; Series B smooth muscle cells): 11.1 nM
diuretic effects in vivo compared with rANVP(126-150) (FIG. 12b) [2]: nearly equipotent
vasorelaxant potency in words [3]: substantially less potent than rANVP(126-150)
vasorelaxant potency in words ([3]; listed as [Ala^130 ] rANVP): essentially inactive
IC50 [3]: > 100 nM

CC[C@H](C)[C@@H]1NC(=O)[C@H](CCCNC(=N)N)NC(=O)[C@H](CC(=O)O)NC(=O)[C@H]([C@@H](C)CC)NC(=O)[C@H](CCCNC(=N)N)NC(=O)CNC(=O)CNC(=O)[C@H](Cc2ccccc2)NC(=O)[C@@H](NC(=O)[C@H](CO)NC(=O)[C@H](CO)NC(=O)[C@@H](N)CCCNC(=N)N)CSSC[C@@H](C(=O)N[C@@H](CC(N)=O)C(=O)N[C@@H](CO)C(=O)N[C@@H](Cc2ccccc2)C(=O)N[C@@H](CCCNC(=N)N)C(=O)N[C@@H](Cc2ccc(O)cc2)C(=O)O)NC(=O)CNC(=O)[C@H](CC(C)C)NC(=O)[C@@H](C)NC(=O)[C@H](CO)NC(=O)[C@H](CCC(N)=O)NC(=O)[C@H](C)NC(=O)CNC1=O [[D-Ala^142]rANVP(126-150), H-Arg-Ser-Ser-Cys-Phe-Gly-Gly-Arg-Ile-Asp-Arg-Ile-Gly-Ala-gln-Ser-[D-Ala]-Leu-Gly-Cys-Asn-Ser-Phe-Arg-Tyr-OH]
Peak Na+ Excr. [4]: 9.1 ± 0.9 µmol/min
Peak Urine Vol. [4]: 66.3 ± 3 µL/min
Ki ([1]; Series A smooth muscle cells): 0.6 nM
vasorelaxant potency in words [3]: most potent
IC50 [3]: 0.62 nM
.V (urine flow rate) [5]: 58.5 µL/min
GFR [5]: 0.75 mL/min
UNa.V (urinary sodium excretion rate) [5]: 2.50 μEq/min

CC[C@H](C)[C@@H]1NC(=O)[C@H](CCCNC(=N)N)NC(=O)[C@H](CC(=O)O)NC(=O)[C@H](CCSC)NC(=O)[C@H](CCCNC(=N)N)NC(=O)CNC(=O)CNC(=O)[C@H](Cc2ccccc2)NC(=O)[C@@H](NC(=O)[C@H](CO)NC(=O)[C@@H](N)CO)CSSC[C@@H](C(=O)N[C@@H](CC(N)=O)C(=O)N[C@@H](CO)C(=O)N[C@@H](Cc2ccccc2)C(=O)N[C@@H](CCCNC(=N)N)C(=O)N[C@@H](Cc2ccc(O)cc2)C(=O)O)NC(=O)CNC(=O)[C@H](CC(C)C)NC(=O)CNC(=O)[C@H](CO)NC(=O)[C@H](CCC(N)=O)NC(=O)[C@H](C)NC(=O)CNC1=O [hANVP(128-151)] (H-SSCFGGRMDRIGAQSGLGCNSFRY-OH; disulfide 3-19)
biological (vasodilatory) activity of expression products, in words [6]: displayed the full range of biological activities
Ki ([1]; Series A smooth muscle cells): 7 nM

hANVP(126-151): human product produced in CHO cells, as printed; probably prohANVP(26-151) (RRSSCFGGRMDRIGAQSGLGCNSFRY; ends and bridges not checked; cysteine pairing not given here; UniProt P01160 126-151, looked up, fragment)
biological (vasodilatory) activity of expression products, in words [6]: exhibited biological activity similar to that observed above
